Entries after “also recorded” stand apart in the source; their conditions may differ. Where two headings read alike, the source gives them in different places.
Legend:
glutamate receptors = assay: Spontaneous EPSCs / miniature AMPA currents recorded from cerebellar interneurons; type: cell-based
Description: Bis-CNB-GABA was applied in vitro. Currents were recorded from cerebellar interneurons. […] FIG. 35 (right) illustrates response traces before and after application of bis-CNB-GABA. FIG. 35 (left) illustrates summary of data. FIG. 36 illustrates effects of 1 mM bis-CNB-GABA on spontaneously evoked miniature glutamate and miniature GABA currents in cerebellar interneuron.
FIG. 37 illustrates effects of uncaging. […] Referring to FIG. 37 (bottom), the graph illustrates uncaging at 365 nm with LED in the presence of 3 mM gabazine.
As a third and final test of the synaptic effects of bis-CNB-GABA, we measured its impact on spontaneous glutamatergic postsynaptic currents (EPSCs) recorded from MLIs. Referring to FIGS. 43B and 43E, with this configuration, no change in the amplitude of the EPSCs was observed (FIG. 43B, bottom) even with concentrations of bis-CNB-GABA up to 2 mM (FIG. 43E, p=0.4, Spearman rank order correlation test).

[1] = Absorbance spectrum / extinction coefficient; type: physicochemical; details: for extinction coefficient: at 262 nm
Description: Following successful synthesis of bis-CNB-GABA, it was necessary to quantify extinction coefficient and quantum yield. […] Referring to FIG. 32, the first was accomplished simply by taking an absorbance spectrum of the compound. Extinction coefficient was then calculated from Beer's law.

physchem = type: physicochemical; details: pH 7, aqueous buffer, thermodynamic from solid
Excerpt: Solubility data was important to obtain before attempting to use the compound in neural tissue. This was accomplished by dissolving a known amount of bis-CNB-GABA in pH 7.0 phosphate buffer solution.

GABAA receptors [2] = assay: Monosynaptic IPSC, whole-cell patch clamp of dentate granule cells of rat hippocampal slices (Molnár & Nadler, 2000); type: cell-based
Description: FIGS. 25A-25B illustrate CNB-GABA depressed in a concentration-dependent manner the monosynaptic IPSC evoked by stimulation of the molecular layer as was observed by Molnár & Nadler, 2000. Referring to FIGS. 2A-25B, stimuli were delivered every 30 s. […] FIG. 25B illustrates cumulative concentration-response curve. Referring to FIG. 25B, the IC for CNB-GABA was essentially the same in the absence (28±9 mM, mean±S.D., n=5) and presence (32±13 mM, mean±S.D., n=4) of the GABAB receptor antagonist CGP 55845A. (Molnár & Nadler, 2000 European Journal of Pharmacology, 391, 255-262, which is incorporated herein by reference as if fully set forth).
FIG. 26 illustrates whole-cell patch clamp recordings from dentate granule cells of rat hippocampal slices reported by Molnár & Nadler, 2000. […] Holding potential of −80 mV. (Molnár & Nadler, 2000 European Journal of Pharmacology, 391, 255-262, which is incorporated herein by reference as if fully set forth, which is incorporated herein by reference as if fully set forth). […] FIG. 27 illustrates summary of the amplitudes of the current evoked by puff of 100 μM GABA and caged compounds around the soma reported by Matsuzaki et al., 2010. The amplitude was normalized to the mean current that was induced by GABA application alone. Left panel illustrates control (n=7); +10 mM CNI-GABA (n=7). […]

GABAA receptors [3] = details: cited from earlier work
[4] = Gee et al., 1994; cited from earlier work
[5] = at 24 hr; prior report; cited from earlier work

Structure (SMILES)	effect on spontaneously-evoked AMPA currents (glutamate receptors; 1 mM (FIG. 36), FIG. 39)	effect on amplitude of miniature AMPA currents (glutamate receptors; 1.223 mM)	effect on miniature AMPA currents (glutamate receptors; 1.233 mM and 1.0 mM)	effect on spontaneous EPSC size / amplitude (glutamate receptors; all concentrations tested, up to 2 mM)	wavelength of maximal absorbance [1] [nm]	extinction coefficient ([1]; listed as Bis-CNB GABA)	extinction coefficient ([1]; listed as Bis-CNB-GABA) [M⁻¹ cm⁻¹]	solubility (physchem) [mM]	concentration required to generate 33% reduction in response (GABAA receptors [2]) [µM]	IC33 (GABAA receptors [2]; Table 1, calculated, q=0.33, in mM)	effect on GABA-evoked currents (GABAA receptors [3]; 200 μM)	IC50 (GABAA receptors [3]; Molnár & Nadler, 2000, read-out: IC50, suppression of GABA-evoked IPSC currents) [µM]	IC50 (GABAA receptors [3]; Table 2, O-CNB-GABA in hippocampal dentate neurons, read-out: IC50 in blocking synaptic GABAA currents) [µM]	activity at GABA receptors before photolysis (GABAA receptors [3])	solubility [4]	conversion in the dark [5] [%]
O=C(CCCNC(C(=O)O)c1ccccc1[N+](=O)[O-])OC(C(=O)O)c1ccccc1[N+](=O)[O-] (stereo not shown) [bis-CNB-GABA, 2-((4-(Carboxy(2-nitrophenyl)methoxy)-4-oxobutyl)amino)-2-(2-nitrophenyl)acetic acid]	no significant effect	no significant effect	no significant effect	unaffected; also recorded: no change	262	7,550 M^−1 cm^−1	7550	≤ 17	–	–	–	–	–	–	–	–
NCCCC(=O)OC(C(=O)O)c1ccccc1[N+](=O)[O-] (stereo not shown) [mono-CNB-GABA]	–	–	–	–	–	–	–	–	14	0.014	reversibly eliminated	28	28	antagonize GABA receptors; also recorded: antagonist of GABAA receptors	over 50 mM	< 1
